What all share (type): binding
One experiment has as its target T1, CLK1 (Homo sapiens, UniProt P49759).
T1 construct: purchased Ambit Biosciences (scanMAXX KINOMEscan)
Nature of the experiment: KINOMEscan, CLK1. Particulars: for remaining binding at 1 µM: read-out: % of control at 1 µM.

In experiment [1] the target is T2, pseudokinase JH2 domain of JAK1 (Homo sapiens, UniProt P23458).
T2 construct: the pseudokinase JH2 domain of JAK1 (89%); purchased Ambit Biosciences (scanMAXX KINOMEscan)
Put plainly: KINOMEscan, JAK1 JH2 domain. To be noted: for remaining binding at 1 µM / remaining binding at 10 µM: kinase JAK1(JH2domain-pseudokinase); for remaining binding at 1 µM: read-out: % of control at 1 µM; for remaining binding at 10 µM: read-out: % of control at 10 µM.

The target in another experiment is T3, FLT3 (D835Y mutant) (Homo sapiens, UniProt P36888, D835Y).
T3 construct: purchased Ambit Biosciences (scanMAXX KINOMEscan)
T3 sequence (P36888 27-993 D835Y): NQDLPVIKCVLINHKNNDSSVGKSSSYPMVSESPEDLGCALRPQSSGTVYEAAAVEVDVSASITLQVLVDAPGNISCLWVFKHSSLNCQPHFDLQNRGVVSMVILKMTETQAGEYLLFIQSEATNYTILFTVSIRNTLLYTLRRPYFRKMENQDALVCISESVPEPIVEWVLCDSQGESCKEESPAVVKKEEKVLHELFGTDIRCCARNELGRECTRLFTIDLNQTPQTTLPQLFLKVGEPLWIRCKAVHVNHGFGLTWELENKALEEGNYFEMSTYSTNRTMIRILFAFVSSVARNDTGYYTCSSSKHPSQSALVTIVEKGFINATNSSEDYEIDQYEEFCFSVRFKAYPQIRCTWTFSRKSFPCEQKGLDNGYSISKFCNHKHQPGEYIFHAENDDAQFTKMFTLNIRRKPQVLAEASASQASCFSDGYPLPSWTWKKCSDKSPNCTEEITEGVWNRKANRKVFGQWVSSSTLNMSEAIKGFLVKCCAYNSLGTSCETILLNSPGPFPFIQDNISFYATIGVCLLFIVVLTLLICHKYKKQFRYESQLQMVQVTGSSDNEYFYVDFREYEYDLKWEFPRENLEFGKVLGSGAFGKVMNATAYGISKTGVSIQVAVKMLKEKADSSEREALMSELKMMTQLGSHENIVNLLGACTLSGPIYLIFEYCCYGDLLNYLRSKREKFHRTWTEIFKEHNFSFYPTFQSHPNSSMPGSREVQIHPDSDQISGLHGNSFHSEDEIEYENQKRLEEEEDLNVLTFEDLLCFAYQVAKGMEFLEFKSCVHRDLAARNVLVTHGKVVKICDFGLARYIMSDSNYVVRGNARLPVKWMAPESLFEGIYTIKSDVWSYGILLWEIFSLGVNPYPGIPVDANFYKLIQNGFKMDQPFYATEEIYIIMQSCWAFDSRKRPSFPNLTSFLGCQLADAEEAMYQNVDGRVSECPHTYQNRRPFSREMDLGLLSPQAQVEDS
Nature of the experiment: KINOMEscan, FLT3 D835Y. Particulars: for remaining binding at 1 µM / remaining binding at 10 µM: FLT3(D835Y); for remaining binding at 1 µM: read-out: % of control at 1 µM; for remaining binding at 10 µM: read-out: % of control at 10 µM.

Another experiment deals with T4, CLK2 (Homo sapiens, UniProt P49760).
T4 construct: purchased Ambit Biosciences (scanMAXX KINOMEscan)
Put plainly: KINOMEscan, CLK2. To be noted: for remaining binding at 1 µM: read-out: % of control at 1 µM.

Another experiment has as its target T5, CLK4 (Homo sapiens, UniProt Q9HAZ1).
T5 construct: purchased Ambit Biosciences (scanMAXX KINOMEscan)
Nature of the experiment: KINOMEscan, CLK4. To be noted: for remaining binding at 1 µM: read-out: % of control at 1 µM.

Experiment [2] deals with T6, catalytic JH1 domain of JAK2 (Homo sapiens, UniProt O60674).
T6 construct: the catalytic JH1 domains of JAK1 and JAK2; purchased Ambit Biosciences (scanMAXX KINOMEscan)
Put plainly: KINOMEscan, JAK2 JH1 domain. Particulars: for remaining binding at 1 µM / remaining binding at 10 µM: kinase JAK2(JH1domain-catalytic); for remaining binding at 1 µM: read-out: % of control at 1 µM; for remaining binding at 10 µM: read-out: % of control at 10 µM.

The target of another experiment is T7, PIK4CB (Homo sapiens, UniProt Q9UBF8).
T7 construct: purchased Ambit Biosciences (scanMAXX KINOMEscan)
Nature of the experiment: KINOMEscan, PIK4CB. Particulars: for remaining binding at 1 µM: read-out: % of control at 1 µM; for remaining binding at 10 µM: read-out: % of control at 10 µM.

The target in the next experiment is T8, MAP4K2 (Homo sapiens, UniProt Q12851).
T8 construct: purchased Ambit Biosciences (scanMAXX KINOMEscan)
T8 sequence (Q12851 1-820): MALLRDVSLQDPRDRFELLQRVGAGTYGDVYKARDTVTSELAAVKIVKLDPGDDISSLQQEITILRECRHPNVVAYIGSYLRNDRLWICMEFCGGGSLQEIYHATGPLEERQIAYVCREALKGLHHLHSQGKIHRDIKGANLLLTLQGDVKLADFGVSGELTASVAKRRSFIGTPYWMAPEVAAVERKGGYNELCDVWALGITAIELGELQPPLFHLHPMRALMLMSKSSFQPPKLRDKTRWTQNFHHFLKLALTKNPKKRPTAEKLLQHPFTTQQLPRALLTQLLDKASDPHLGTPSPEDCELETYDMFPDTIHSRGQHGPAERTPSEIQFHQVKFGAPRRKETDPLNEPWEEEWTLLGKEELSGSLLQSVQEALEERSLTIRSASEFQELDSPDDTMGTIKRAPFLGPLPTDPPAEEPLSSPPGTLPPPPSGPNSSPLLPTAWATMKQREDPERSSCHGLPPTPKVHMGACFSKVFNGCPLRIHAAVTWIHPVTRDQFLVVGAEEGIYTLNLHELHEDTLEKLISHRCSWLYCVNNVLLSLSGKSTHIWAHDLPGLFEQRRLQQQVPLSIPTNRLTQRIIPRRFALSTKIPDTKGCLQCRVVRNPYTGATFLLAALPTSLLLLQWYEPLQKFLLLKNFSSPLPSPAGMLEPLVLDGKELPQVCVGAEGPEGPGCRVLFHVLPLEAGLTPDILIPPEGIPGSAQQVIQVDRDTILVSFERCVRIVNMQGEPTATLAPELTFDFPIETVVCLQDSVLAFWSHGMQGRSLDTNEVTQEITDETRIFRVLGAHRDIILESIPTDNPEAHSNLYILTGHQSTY
Nature of the experiment: KINOMEscan, MAP4K2. Particulars: for remaining binding at 1 µM / remaining binding at 10 µM: kinase MAP4K2; for remaining binding at 1 µM: read-out: % of control at 1 µM; for remaining binding at 10 µM: read-out: % of control at 10 µM.

In experiment [3] the target is T9, catalytic JH1 domain of JAK1 (Homo sapiens, UniProt P23458).
T9 construct: the catalytic JH1 domains of JAK1 and JAK2; purchased Ambit Biosciences (scanMAXX KINOMEscan)
Nature of the experiment: KINOMEscan, JAK1 JH1 domain. To be noted: for remaining binding at 1 µM / remaining binding at 10 µM: kinase JAK1(JH1domain-catalytic); for remaining binding at 1 µM: read-out: % of control at 1 µM; for remaining binding at 10 µM: read-out: % of control at 10 µM.

A further experiment addresses T10, PIK3C2B (Homo sapiens, UniProt O00750).
T10 construct: purchased Ambit Biosciences (scanMAXX KINOMEscan)
Put plainly: KINOMEscan, PIK3C2B. To be noted: for remaining binding at 1 µM / remaining binding at 10 µM: kinase PIK3C2B; for remaining binding at 1 µM: read-out: % of control at 1 µM; for remaining binding at 10 µM: read-out: % of control at 10 µM.

The target of another experiment is T11, ERBB3 (Homo sapiens, UniProt P21860).
T11 construct: purchased Ambit Biosciences (scanMAXX KINOMEscan)
Put plainly: KINOMEscan, ERBB3. To be noted: for remaining binding at 1 µM / remaining binding at 10 µM: ERBB3; for remaining binding at 1 µM: read-out: % of control at 1 µM; for remaining binding at 10 µM: read-out: % of control at 10 µM.

Read-outs that look alike come from different tables or passages of the source.

T2 sequence (P23458 583-855 limits assumed): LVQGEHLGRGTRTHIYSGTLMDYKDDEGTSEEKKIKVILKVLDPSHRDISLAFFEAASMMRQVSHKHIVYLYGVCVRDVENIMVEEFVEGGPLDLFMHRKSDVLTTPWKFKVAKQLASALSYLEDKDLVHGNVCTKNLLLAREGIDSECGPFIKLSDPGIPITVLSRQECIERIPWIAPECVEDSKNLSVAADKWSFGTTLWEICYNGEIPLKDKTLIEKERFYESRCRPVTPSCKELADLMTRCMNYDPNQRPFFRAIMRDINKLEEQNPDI
T1 sequence (P49759 whole entry): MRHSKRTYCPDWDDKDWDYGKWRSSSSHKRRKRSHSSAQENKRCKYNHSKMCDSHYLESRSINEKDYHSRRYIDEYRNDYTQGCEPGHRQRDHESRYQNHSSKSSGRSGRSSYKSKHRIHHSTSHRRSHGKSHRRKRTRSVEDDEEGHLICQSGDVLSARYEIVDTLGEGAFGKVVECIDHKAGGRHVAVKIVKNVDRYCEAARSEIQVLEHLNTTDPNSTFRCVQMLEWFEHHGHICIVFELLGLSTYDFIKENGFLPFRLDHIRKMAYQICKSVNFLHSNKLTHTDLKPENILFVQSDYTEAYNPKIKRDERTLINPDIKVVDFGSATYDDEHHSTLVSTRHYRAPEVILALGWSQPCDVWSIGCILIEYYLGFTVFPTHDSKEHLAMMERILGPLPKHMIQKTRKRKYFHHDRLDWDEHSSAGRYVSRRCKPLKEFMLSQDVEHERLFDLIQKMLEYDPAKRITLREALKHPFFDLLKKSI
T4 sequence (P49760 whole entry): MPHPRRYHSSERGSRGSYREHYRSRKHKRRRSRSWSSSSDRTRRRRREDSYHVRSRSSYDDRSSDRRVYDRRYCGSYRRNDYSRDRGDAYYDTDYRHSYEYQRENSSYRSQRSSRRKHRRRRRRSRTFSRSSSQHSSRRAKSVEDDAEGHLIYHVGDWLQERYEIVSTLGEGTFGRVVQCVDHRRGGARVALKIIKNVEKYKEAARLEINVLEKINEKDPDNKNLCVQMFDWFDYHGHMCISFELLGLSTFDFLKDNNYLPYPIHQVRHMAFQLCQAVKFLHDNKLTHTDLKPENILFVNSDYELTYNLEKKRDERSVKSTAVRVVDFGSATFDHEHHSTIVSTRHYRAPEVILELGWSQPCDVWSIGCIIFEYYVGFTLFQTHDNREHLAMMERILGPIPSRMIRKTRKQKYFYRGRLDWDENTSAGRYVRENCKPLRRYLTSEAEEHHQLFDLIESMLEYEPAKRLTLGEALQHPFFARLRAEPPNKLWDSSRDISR
T5 sequence (Q9HAZ1 whole entry): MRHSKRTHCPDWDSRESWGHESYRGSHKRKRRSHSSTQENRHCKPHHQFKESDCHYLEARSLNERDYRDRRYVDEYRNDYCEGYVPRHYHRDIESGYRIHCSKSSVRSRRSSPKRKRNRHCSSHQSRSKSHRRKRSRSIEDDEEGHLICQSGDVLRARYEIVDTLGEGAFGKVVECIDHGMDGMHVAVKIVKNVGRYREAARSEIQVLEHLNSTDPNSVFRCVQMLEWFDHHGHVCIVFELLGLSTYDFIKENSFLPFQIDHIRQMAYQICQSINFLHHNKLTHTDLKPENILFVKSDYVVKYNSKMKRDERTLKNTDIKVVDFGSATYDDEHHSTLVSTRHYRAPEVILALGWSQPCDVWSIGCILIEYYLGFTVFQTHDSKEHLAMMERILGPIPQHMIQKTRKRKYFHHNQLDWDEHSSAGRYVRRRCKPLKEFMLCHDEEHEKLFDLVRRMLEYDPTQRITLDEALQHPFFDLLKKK
T10 sequence (O00750 whole entry): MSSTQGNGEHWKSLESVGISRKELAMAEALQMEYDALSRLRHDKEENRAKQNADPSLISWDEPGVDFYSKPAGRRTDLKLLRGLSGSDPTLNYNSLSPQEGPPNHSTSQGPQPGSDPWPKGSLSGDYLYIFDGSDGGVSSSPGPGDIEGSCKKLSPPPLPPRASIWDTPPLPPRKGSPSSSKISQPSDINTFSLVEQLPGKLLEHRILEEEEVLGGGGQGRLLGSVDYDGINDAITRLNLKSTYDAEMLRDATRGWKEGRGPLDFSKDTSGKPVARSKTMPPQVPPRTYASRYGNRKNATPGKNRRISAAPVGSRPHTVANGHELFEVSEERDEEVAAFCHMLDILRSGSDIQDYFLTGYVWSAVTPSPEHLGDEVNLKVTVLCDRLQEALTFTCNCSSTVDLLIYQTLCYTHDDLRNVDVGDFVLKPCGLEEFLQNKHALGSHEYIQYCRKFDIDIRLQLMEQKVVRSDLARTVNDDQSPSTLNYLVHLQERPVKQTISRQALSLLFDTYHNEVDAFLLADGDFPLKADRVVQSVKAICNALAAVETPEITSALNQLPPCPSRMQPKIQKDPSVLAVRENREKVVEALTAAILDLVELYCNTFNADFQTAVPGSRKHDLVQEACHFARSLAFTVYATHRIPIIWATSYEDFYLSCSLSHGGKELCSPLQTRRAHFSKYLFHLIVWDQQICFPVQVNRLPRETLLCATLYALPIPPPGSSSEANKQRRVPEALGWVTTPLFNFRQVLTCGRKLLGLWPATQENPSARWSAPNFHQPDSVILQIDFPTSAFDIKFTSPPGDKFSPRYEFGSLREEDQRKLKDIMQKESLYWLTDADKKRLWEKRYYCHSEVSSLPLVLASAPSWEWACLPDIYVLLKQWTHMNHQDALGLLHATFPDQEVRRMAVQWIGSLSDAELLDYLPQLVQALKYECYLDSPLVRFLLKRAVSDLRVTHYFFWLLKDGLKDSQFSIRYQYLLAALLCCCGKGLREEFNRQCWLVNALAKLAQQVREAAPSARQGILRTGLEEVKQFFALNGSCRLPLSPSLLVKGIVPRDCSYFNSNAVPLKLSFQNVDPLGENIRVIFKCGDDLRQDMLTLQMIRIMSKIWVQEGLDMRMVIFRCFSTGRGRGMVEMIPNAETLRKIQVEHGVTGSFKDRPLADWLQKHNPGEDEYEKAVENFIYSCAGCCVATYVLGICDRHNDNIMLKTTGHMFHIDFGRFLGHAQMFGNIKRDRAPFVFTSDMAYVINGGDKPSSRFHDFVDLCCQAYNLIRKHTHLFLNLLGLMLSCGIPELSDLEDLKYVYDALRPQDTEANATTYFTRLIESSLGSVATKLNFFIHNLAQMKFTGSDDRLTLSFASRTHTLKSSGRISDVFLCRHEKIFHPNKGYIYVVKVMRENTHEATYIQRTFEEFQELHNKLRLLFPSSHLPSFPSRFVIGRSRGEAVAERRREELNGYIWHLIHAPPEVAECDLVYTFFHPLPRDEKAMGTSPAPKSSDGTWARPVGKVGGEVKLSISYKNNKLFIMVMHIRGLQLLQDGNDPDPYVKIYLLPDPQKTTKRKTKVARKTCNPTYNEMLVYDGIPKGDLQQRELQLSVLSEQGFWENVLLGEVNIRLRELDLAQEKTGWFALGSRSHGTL
T6 sequence (O60674 849-1124 limits assumed): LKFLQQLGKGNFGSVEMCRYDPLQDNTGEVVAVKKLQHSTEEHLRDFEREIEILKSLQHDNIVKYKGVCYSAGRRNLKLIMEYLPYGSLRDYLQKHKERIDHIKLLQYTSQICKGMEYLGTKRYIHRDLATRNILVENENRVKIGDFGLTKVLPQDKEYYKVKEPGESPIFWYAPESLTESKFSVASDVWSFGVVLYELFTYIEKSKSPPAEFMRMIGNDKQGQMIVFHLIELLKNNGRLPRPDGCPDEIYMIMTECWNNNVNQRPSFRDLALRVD
T9 sequence (P23458 875-1153 limits assumed): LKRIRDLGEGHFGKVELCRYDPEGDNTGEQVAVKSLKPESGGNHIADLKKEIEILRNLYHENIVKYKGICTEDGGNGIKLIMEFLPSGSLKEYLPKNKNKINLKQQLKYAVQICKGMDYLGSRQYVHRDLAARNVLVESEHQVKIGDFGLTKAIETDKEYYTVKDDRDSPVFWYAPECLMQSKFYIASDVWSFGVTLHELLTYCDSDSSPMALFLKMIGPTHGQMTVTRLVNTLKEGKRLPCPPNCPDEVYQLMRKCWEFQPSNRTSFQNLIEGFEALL
T7 sequence (Q9UBF8 whole entry): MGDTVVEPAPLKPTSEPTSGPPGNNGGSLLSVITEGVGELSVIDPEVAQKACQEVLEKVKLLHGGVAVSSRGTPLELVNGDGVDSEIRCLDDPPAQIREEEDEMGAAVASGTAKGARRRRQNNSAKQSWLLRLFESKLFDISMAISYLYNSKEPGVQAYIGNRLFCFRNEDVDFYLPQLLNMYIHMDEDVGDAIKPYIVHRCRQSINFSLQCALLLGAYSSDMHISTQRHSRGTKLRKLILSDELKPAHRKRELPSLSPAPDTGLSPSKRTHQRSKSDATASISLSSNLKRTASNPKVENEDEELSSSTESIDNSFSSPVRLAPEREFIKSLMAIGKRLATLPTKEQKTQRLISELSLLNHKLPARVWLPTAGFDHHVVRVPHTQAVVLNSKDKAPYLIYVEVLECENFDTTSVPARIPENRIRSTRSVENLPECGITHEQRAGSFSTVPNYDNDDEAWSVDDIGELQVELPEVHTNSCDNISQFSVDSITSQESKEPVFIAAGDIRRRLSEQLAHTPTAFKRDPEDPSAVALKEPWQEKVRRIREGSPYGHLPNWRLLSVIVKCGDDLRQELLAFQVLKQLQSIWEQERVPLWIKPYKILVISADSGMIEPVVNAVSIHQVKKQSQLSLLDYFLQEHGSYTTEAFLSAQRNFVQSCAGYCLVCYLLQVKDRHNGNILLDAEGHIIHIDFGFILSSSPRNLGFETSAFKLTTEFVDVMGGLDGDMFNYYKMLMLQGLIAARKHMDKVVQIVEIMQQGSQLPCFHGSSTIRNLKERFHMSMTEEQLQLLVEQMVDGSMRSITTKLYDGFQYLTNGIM

Turning to `COc1ncc(-c2ccc3nccc(-c4ccnnc4)c3c2)cc1NS(=O)(=O)c1ccc(F)cc1F` [Omipalisib], the remaining binding at 1 µM was found to be 96% on CLK1 (CLK1); 57% in experiment [1]; 100% on FLT3 (D835Y mutant); 92% on CLK2 (CLK2); 100% at CLK4 (CLK4); 90% in [2]. Also, the remaining binding at 1 µM was found to be 0.7% on PIK4CB (kinase PIK4CB, 1 µM); 100% on MAP4K2; 100% in [3]; 0% at PIK3C2B; 95% on ERBB3. Further, the “off-target binding to PIK4CB” value on PIK4CB (1 μM) was “non-selective”. Besides, the “off-target binding to PIK3C2B” value at PIK3C2B (1 μM) is recorded as “non-selective”.
In the case of `Cn1c(=O)n(-c2ccc(C(C)(C)C#N)cc2)c2c3cc(-c4cnc5ccccc5c4)ccc3ncc21` [Dactolisib, 2-methyl-2-[4-(3-methyl-2-oxo-8-quinolin-3-yl-2,3-dihydroimidazo[4,5-c]quinolin-1-yl)-phenyl] propionitrile], the inhibition at 1 µM (at CLK1 (1 μM); on FLT3 (D835Y mutant) (1 μM); on CLK4 (1 μM); in [2] (1 μM); against MAP4K2 (1 μM); in experiment [3] (1 μM)) was > 80% throughout. Further, the inhibition at 1 µM on PIK3C2B (1 μM) and against ERBB3 (1 μM) was > 80% in each case. For the same molecule, the remaining binding at 1 µM at CLK1 (CLK1) turned out to be 13%; in [1], 43%; on FLT3 (D835Y mutant) it was 13%; at CLK2 (CLK2) it was 81%; on CLK4 (CLK4) it was 12%; in experiment [2], 8.2%. Also, the remaining binding at 1 µM on PIK4CB stood at 64%; at MAP4K2, 0.25%; in [3], 12%; at PIK3C2B, 9.9%; at ERBB3 it was 9.2%.
`CS(=O)(=O)N1CCN(Cc2cc3nc(-c4cccc5[nH]ncc45)nc(N4CCOCC4)c3s2)CC1` [Pictilisib, 2-(1H-indazol-4-yl)-6-(4-methanesulfonyl-piperazin-1-ylmethyl)-4-morpholin-4-yl-t hieno[3,2-d]pyrimidine]: the inhibition at 1 µM in experiment [1] (1 μM) was determined as 89%. Moreover, the remaining binding at 1 µM in experiment [1] amounted to 11%; in experiment [2], 100%; on PIK4CB (kinase PIK4CB, 1 µM) it was 100%; on MAP4K2, 100%; in [3], 100%; on PIK3C2B, 54%. On ERBB3, the remaining binding at 1 µM was found to be 100%. Besides, the remaining binding at 10 µM in experiment [1] worked out at 0.85%; on FLT3 (D835Y mutant), 5.4%; in experiment [2], 26%; on PIK4CB (kinase PIK4CB), 75%; at MAP4K2, 61%; in experiment [3], 100%. Also, the remaining binding at 10 µM at PIK3C2B came out at 0.45%; at ERBB3, 96%. On PIK3C2B (10 μM), the “off-target activity against PIK3C2B” value is “active”.
With `Nc1cc(C(F)(F)F)c(-c2cc(N3CCOCC3)nc(N3CCOCC3)n2)cn1` [Buparlisib], the “binding to CLK1” value on CLK1 (10 μM) is recorded as > 80%. The remaining binding at 1 µM was 42% at CLK1 (CLK1); 89% in experiment [1]; 70% on FLT3 (D835Y mutant); 29% at CLK2 (CLK2); 38% on CLK4 (CLK4); 63% in experiment [2]. For the same molecule, the remaining binding at 1 µM was 86% on PIK4CB (kinase PIK4CB, 1 µM); 82% at MAP4K2; 96% in [3]; 97% at PIK3C2B; 100% at ERBB3. The remaining binding at 10 µM on CLK1 (CLK1, 10 µM, read-out: % of control at 10 µM) was 5.3%; in [1] it was 76%; at FLT3 (D835Y mutant), 42%; on CLK2 (CLK2, 10 µM, read-out: % of control at 10 µM) it was 18%; on CLK4 (CLK4, 10 µM, read-out: % of control at 10 µM), 13%; in [2] it was 79%. The remaining binding at 10 µM at PIK4CB (kinase PIK4CB) was 100%; at MAP4K2 it was 100%; in [3] it was 100%; at PIK3C2B it was 100%; at ERBB3 it was 90%. In addition, the “binding to CLK2” value on CLK2 (10 μM) is > 80%. Besides, the “binding to CLK4” value at CLK4 (10 μM) was > 80%.
Take `FC(F)c1nc2ccccc2n1-c1nc(N2CCOCC2)nc(N2CCOCC2)n1` [ZSTK474, 2-(difluoromethyl)-1-[4,6-di(4-morpholinyl)-1,3,5-triazin-2-yl]-1H-benzimidazole]: the remaining binding at 1 µM stood at 100% at CLK1 (CLK1); 100% in [1]; 84% on FLT3 (D835Y mutant); 100% on CLK2 (CLK2); 96% at CLK4 (CLK4); 100% in [2]. The remaining binding at 1 µM at PIK4CB (kinase PIK4CB, 1 µM) turned out to be 84%; on MAP4K2 it was 85%; in experiment [3], 98%; at PIK3C2B it was 0.85%; on ERBB3, 24%. For the same molecule, at PIK3C2B (1 μM), the “off-target binding to PIK3C2B” value is given as “high binding affinity”.

The values are drawn from publication PMC5564600 (Oncotarget, 2017).
